Laboratory results reported in PMC7708434 (Biochimica et biophysica acta. General subjects, 2020).

What was measured:
Assay type in all cases: binding
[1] = target: T1, 4-hydroxy-tetrahydrodipicolinate reductase (MtDapB) (Mycobacterium tuberculosis, UniProt P9WP23); assay: ITC
[2] = target: T2, 4-hydroxy-tetrahydrodipicolinate reductase (VvDapB) (Vibrio vulnificus, UniProt Q8DEM0); assay: ITC
[3] = target: T2, 4-hydroxy-tetrahydrodipicolinate reductase (VvDapB); assay: X-ray crystal structure
[4] = target: T1, 4-hydroxy-tetrahydrodipicolinate reductase (MtDapB); assay: X-ray crystal structure

T1 sequence (P9WP23 whole entry): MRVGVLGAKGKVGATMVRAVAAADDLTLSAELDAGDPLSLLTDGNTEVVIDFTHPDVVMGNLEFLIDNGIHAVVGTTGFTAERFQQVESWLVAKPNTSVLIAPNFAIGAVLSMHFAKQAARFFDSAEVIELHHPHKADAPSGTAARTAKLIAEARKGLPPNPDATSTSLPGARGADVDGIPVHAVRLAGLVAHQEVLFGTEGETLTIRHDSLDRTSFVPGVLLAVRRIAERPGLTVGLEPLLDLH
T2 sequence (Q8DEM0 whole entry): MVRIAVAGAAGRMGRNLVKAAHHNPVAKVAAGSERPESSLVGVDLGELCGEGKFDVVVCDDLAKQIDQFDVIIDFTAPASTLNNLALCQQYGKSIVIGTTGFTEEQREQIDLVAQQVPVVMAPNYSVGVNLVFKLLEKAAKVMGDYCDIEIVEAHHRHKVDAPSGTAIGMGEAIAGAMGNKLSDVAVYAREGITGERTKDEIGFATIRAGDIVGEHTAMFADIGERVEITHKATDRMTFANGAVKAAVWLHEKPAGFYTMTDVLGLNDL

SMILES | Kd [1] | Kd [2] | X-ray crystal structure [3] | X-ray crystal structure [4]
NC(=O)C1=CN([C@@H]2O[C@H](COP(=O)(O)OP(=O)(O)OC[C@H]3O[C@@H](n4cnc5c(N)ncnc54)[C@H](O)[C@@H]3O)[C@@H](O)[C@H]2O)C=CC1 [NADH] | 3.6 ± 0.4 µM | 3.9 ± 1.2 µM | – | –
NC(=O)c1ccc[n+]([C@@H]2O[C@H](COP(=O)([O-])OP(=O)(O)OC[C@H]3O[C@@H](n4cnc5c(N)ncnc54)[C@H](O)[C@@H]3O)[C@@H](O)[C@H]2O)c1 [NAD+] | – | – | NADH was used for crystallization, in all cases we observed NAD^+ in the crystal structures | apo MtDapB (PDB ID: 5TEK chain A) and NAD^+ bound MtDapB (PDB ID: 5UGV chain A) structures
